Assay results from the NIST ThermoML archive (doi:10.1016/j.tca.2006.01.020).

Experiment: molar heat capacity at constant pressure
Details: 101.33 kPa, Crystal, Small (less than 1 g) adiabatic calorimetry

[Ba+2].[O-2].[O-2].[O-2].[Zr+4] [barium zirconium(IV) oxide]
Details | molar heat capacity at constant pressure [J/K/mol]
1.659 K | 0.00346
1.662 K | 0.00357
1.664 K | 0.00348
1.666 K | 0.00351
1.671 K | 0.00353
1.675 K | 0.00351
1.677 K | 0.00363
1.683 K | 0.00349
1.689 K | 0.00342
1.699 K | 0.00335
1.722 K | 0.00326
1.735 K | 0.00341
1.744 K | 0.00345
1.763 K | 0.00333
2.098 K | 0.00292
2.107 K | 0.00345
2.124 K | 0.00373
2.15 K | 0.0036
2.163 K | 0.00346
2.173 K | 0.00343
2.185 K | 0.00389
2.198 K | 0.00355
2.209 K | 0.00288
2.216 K | 0.00344
2.228 K | 0.00346
2.261 K | 0.00391
2.281 K | 0.0035
2.325 K | 0.00371
2.372 K | 0.0038
2.389 K | 0.00365
2.42 K | 0.00384
2.515 K | 0.00414
2.651 K | 0.00484
2.824 K | 0.00516
2.831 K | 0.00564
2.919 K | 0.00559
2.952 K | 0.00633
3.106 K | 0.00618
3.116 K | 0.00718
3.242 K | 0.00714
3.366 K | 0.00794
3.538 K | 0.00865
3.656 K | 0.00903
3.873 K | 0.00964
3.987 K | 0.0104
4.096 K | 0.0108
4.199 K | 0.0112
4.473 K | 0.0129
4.617 K | 0.0156
4.702 K | 0.0156
4.777 K | 0.0158
4.851 K | 0.0176
4.929 K | 0.0183
5.008 K | 0.02
5.086 K | 0.019
5.165 K | 0.021
5.246 K | 0.0226
5.329 K | 0.0234
5.41 K | 0.0243
5.489 K | 0.0216
5.545 K | 0.0289
5.64 K | 0.0269
5.717 K | 0.0288
5.79 K | 0.0301
5.87 K | 0.0306
5.93 K | 0.0325
6.02 K | 0.0336
6.08 K | 0.0338
6.19 K | 0.0357
6.27 K | 0.0366
6.36 K | 0.0388
6.45 K | 0.0407
6.54 K | 0.0424
6.62 K | 0.044
6.72 K | 0.0458
6.8 K | 0.0494
6.9 K | 0.0501
6.98 K | 0.0511
7.08 K | 0.0539
7.16 K | 0.0547
7.26 K | 0.0547
7.36 K | 0.0593
7.47 K | 0.0629
7.56 K | 0.0638
7.67 K | 0.0662
7.77 K | 0.07
7.89 K | 0.0767
7.98 K | 0.076
8.1 K | 0.0841
8.2 K | 0.083
8.32 K | 0.091
8.43 K | 0.0913
8.55 K | 0.101
8.67 K | 0.102
8.8 K | 0.112
8.91 K | 0.111
9.05 K | 0.127
9.12 K | 0.121
9.26 K | 0.138
9.33 K | 0.13
9.47 K | 0.148
9.6 K | 0.144
9.75 K | 0.163
9.88 K | 0.159
10 K | 0.168
10.01 K | 0.17
10.18 K | 0.188
10.31 K | 0.186
10.47 K | 0.208
10.6 K | 0.205
10.76 K | 0.228
10.94 K | 0.235
11.09 K | 0.245
11.27 K | 0.27
11.45 K | 0.278
11.62 K | 0.29
11.8 K | 0.317
12 K | 0.341
12.15 K | 0.34
12.35 K | 0.385
12.54 K | 0.383
12.72 K | 0.416
12.92 K | 0.449
13.12 K | 0.466
13.32 K | 0.5
13.53 K | 0.54
13.73 K | 0.561
13.93 K | 0.599
14.13 K | 0.628
14.34 K | 0.692
14.54 K | 0.702
14.75 K | 0.772
14.97 K | 0.803
15.18 K | 0.858
15.39 K | 0.892
15.59 K | 0.951
15.81 K | 1.02
16.03 K | 1.06
16.24 K | 1.13
16.46 K | 1.2
16.68 K | 1.25
16.9 K | 1.32
17.12 K | 1.4
17.34 K | 1.46
17.56 K | 1.54
17.79 K | 1.63
18.03 K | 1.72
18.26 K | 1.77
18.47 K | 1.87
18.69 K | 1.97
18.92 K | 2.07
19.15 K | 2.15
19.38 K | 2.27
19.62 K | 2.37
19.86 K | 2.44
20 K | 2.564
20.07 K | 2.59
20.32 K | 2.69
20.56 K | 2.75
20.77 K | 2.91
21 K | 3.03
21.25 K | 3.1
21.47 K | 3.28
21.71 K | 3.37
21.95 K | 3.48
22.17 K | 3.66
22.41 K | 3.78
22.67 K | 3.87
22.9 K | 3.98
23.11 K | 4.17
23.34 K | 4.32
23.59 K | 4.41
23.83 K | 4.56
24.06 K | 4.76
24.31 K | 4.87
24.56 K | 4.97
24.78 K | 5.12
25 K | 5.34
25.24 K | 5.49
25.5 K | 5.6
25.74 K | 5.74
25.96 K | 5.93
26.19 K | 6.12
26.44 K | 6.29
26.7 K | 6.36
26.94 K | 6.51
27.15 K | 6.76
27.39 K | 6.91
27.68 K | 6.91
27.72 K | 7.04
28.07 K | 7.4
28.32 K | 7.57
28.59 K | 7.63
28.82 K | 7.79
29.03 K | 8.03
29.26 K | 8.25
30 K | 8.651
30.07 K | 8.73
30.34 K | 8.73
30.45 K | 8.93
31.03 K | 9.36
31.64 K | 9.8
32.28 K | 10.4
32.94 K | 10.9
33.63 K | 11.4
34.33 K | 11.9
35.05 K | 12.4
35.78 K | 13
36.53 K | 13.5
37.28 K | 14.1
38.03 K | 14.7
38.8 K | 15.3
39.58 K | 15.9
40 K | 16.19
40.37 K | 16.4
41.18 K | 17.1
42 K | 17.7
42.84 K | 18.3
43.69 K | 19
44.56 K | 19.6
45.45 K | 20.2
46.36 K | 21
47.29 K | 21.6
48.24 K | 22.3
49.21 K | 23
50 K | 23.59
50.25 K | 23.7
51.26 K | 24.4
52.27 K | 25.2
53.27 K | 25.9
54.27 K | 26.6
55.27 K | 27.3
56.27 K | 28.1
57.27 K | 28.8
58.26 K | 29.5
59.25 K | 30.2
60 K | 30.79
60.25 K | 31
61.24 K | 31.6
62.3 K | 32.5
63.25 K | 33.2
64.23 K | 33.8
65.21 K | 34.5
66.2 K | 35.2
67.19 K | 35.9
68.19 K | 36.2
69.19 K | 36.9
70 K | 37.33
71.18 K | 38.3
72.18 K | 38.8
73.19 K | 39.5
74.19 K | 40
75.18 K | 40.7
76.18 K | 41.3
77.18 K | 42
78.18 K | 42.5
79.18 K | 43.1
80 K | 43.22
80.18 K | 43.6
81.18 K | 44.3
82.18 K | 44.7
83.18 K | 45.1
84.17 K | 45.7
85.17 K | 46.3
86.17 K | 46.7
87.17 K | 47.2
87.74 K | 46.8
89.5 K | 48.5
90 K | 48.58
91.29 K | 49.3
93.12 K | 50.1
94.99 K | 51.3
96.9 K | 52.1
98.84 K | 52.7
100 K | 53.49
100.82 K | 53.7
102.81 K | 54.6
104.8 K | 55.6
106.79 K | 56.6
108.78 K | 57.5
110.77 K | 58.4
112.76 K | 59.4
114.75 K | 60.3
116.74 K | 61.2
118.72 K | 62
120 K | 62.3
120.69 K | 62.8
122.66 K | 63.7
124.65 K | 64.5
126.64 K | 65.3
128.63 K | 66.1
130.62 K | 66.8
132.27 K | 67.5
133.6 K | 68
134.94 K | 68.5
136.28 K | 69
137.64 K | 69.5
139.02 K | 70
140 K | 70.04
140.41 K | 70.1
141.81 K | 70.6
143.23 K | 71.1
144.66 K | 71.7
146.11 K | 72.2
147.57 K | 72.7
149.04 K | 73.2
150.53 K | 73.9
152.03 K | 74.3
153.55 K | 74.9
155.09 K | 75.3
156.64 K | 75.9
158.2 K | 76.3
159.79 K | 76.9
160 K | 76.91
161.38 K | 77.3
163 K | 77.9
164.63 K | 78.4
166.26 K | 78.9
167.93 K | 79.4
169.61 K | 79.9
171.3 K | 80.4
173.01 K | 81
174.74 K | 81.4
176.49 K | 82
178.25 K | 82.3
180 K | 82.99
180.03 K | 83
181.83 K | 83.5
183.65 K | 84.1
185.48 K | 84.7
187.34 K | 85.1
189.21 K | 85.5
191.1 K | 86.2
193 K | 86.7
194.93 K | 87
196.88 K | 87.9
198.84 K | 88
200 K | 88.29
200.83 K | 88.7
202.81 K | 89
204.8 K | 89.7
206.78 K | 90.5
208.76 K | 90.8
210.75 K | 91.3
212.73 K | 92.4
214.71 K | 91.7
216.7 K | 92.1
218.69 K | 92.5
220 K | 92.87
220.66 K | 93
222.65 K | 93.4
224.62 K | 94
226.6 K | 94.3
228.58 K | 94.9
230.56 K | 95.7
232.54 K | 95.8
234.52 K | 95.9
236.49 K | 96.5
238.47 K | 96.6
240 K | 96.81
240.44 K | 97.1
242.41 K | 97.6
244.39 K | 97.6
246.36 K | 98.4
248.33 K | 98.2
250.31 K | 98.9
252.27 K | 99.4
254.25 K | 99.7
256.22 K | 99.7
258.19 K | 99.8
260 K | 100.3
260.16 K | 100.3
262.12 K | 100.7
264.08 K | 100.7
266.04 K | 101.8
268.01 K | 102.2
269.99 K | 101.6
271.94 K | 102.6
273.9 K | 103
275.86 K | 103.2
277.83 K | 103.3
279.79 K | 103.8
280 K | 103.7
281.74 K | 104.6
283.71 K | 105.2
285.68 K | 105
287.63 K | 105
289.59 K | 105.2
291.54 K | 107
293.51 K | 106.2
295.49 K | 107.4
297.42 K | 106.6
298.15 K | 107
299.39 K | 106.6
300 K | 107.4
301.32 K | 107.9
